These results are taken from article PMC12095705, “Diversity and enzymatic activity of Polish beehive products microbiota, and characterization of a novel β-galactosidase from Paenibacillus sp. 8” (Scientific Reports, 2025).

Structures are written as SMILES.

This test addresses T1, BgaP β-galactosidase.
T1 construct: recombinant full-length, 675 amino acids (GenBank XED97098)
Kind of test: inhibition of ONPG hydrolysis by purified enzyme, […] °C, pH […]; Lineweaver-Burk. The format is biochemical, Paenibacillus sp. 8.

What is called Ki is the equilibrium dissociation constant of an inhibitor or competing ligand from its target. High values mean lower affinity, low ones higher affinity.

The compound `OC[C@H]1OC(O)[C@H](O)[C@@H](O)[C@H]1O` (some centres unmarked) [galactose] had a Ki of 6.99 mM.

With `OC[C@H]1OC(O)[C@H](O)[C@@H](O)[C@@H]1O` (some centres unmarked) [glucose], the Ki came out at 27.3 mM.
